Measured values taken from patent publication US20250134379A1, “Methods for Localization of Cancerous Tissue Using Fluorescent Molecular Imaging Agent for Diagnosis or Treatment” (Vergent Bioscience, Inc., priority 2023, published 2025).

Columns and labels:
[1] = tested on: tumor; assay: Intraoperative NIR imaging of patients given VGT-309 before surgery; type: in vivo, human; settings: patient
Excerpt: A patient appeared to have a localized tumor, as identified by the preoperative scans, but the surgeon identified lymph node spread during resection with VGT-309. […] Absent from these scans were any evidence of spread to other areas of the lungs or the lymph nodes. […] […] The surgeon also visually examined and biopsied the proximal lymph nodes, neither of which indicated the tumor had spread. […] The surgeon was therefore able to perform a biopsy, which confirmed that the cancer had spread, and as a result re-staged the patient in real-time and performed a radical lymph node dissection. At the end of the procedure, the surgeon removed all traces of the cancer.
However, it was confirmed under NIR that this abnormal lung tissue was in fact cancerous.

[2] = tested on: cancerous tissue; assay: Preclinical / animal model studies of duration of VGT-309 fluorescence in tissue; type: in vivo
Excerpt: There are several molecular imaging agents that are currently in various stages of development and testing, but of these agents VGT-309 is particularly advantageous. VGT-309 targets and covalently binds to cathepsin targets, which are present in larger amounts in solid tumors and tumor margins than in normal tissues. When this binding occurs, the quencher is cleaved from the molecule and VGT-309 becomes “active” at which point the tumor will fluoresce under near-infrared (NIR) light.

[3] = tested on: tumor; assay: Phase 2 study of VGT-309 in Australia: clinically significant events (CSEs) during tumor removal; type: in vivo, human; settings: Phase 2 study in Australia
Excerpt: CSEs are one way to measure whether an imaging agent, such as VGT-309, adds a clinical benefit to the diagnosis and treatment process. In this context, CSEs generally fall into one of three categories: (1) localization of hard-to-find tumors, (2) identification of positive resection margins, and (3) identification of additional primary and metastatic lesions that were not previously detected using existing technologies. […] In a Phase 2 study of VGT-309 in Australia, one third of patients experienced a […]

CC1(C)C(/C=C/C2=C(Cl)C(=C/C=C3/N(CCCCCC(=O)NCCNC(=O)c4c(F)c(F)c(OCC(=O)[C@H](CCCCNC(=O)CCCCCN5/C(=C/C=C/C=C/C=C\C6=[N+](CCCCS(=O)(=O)O)c7ccc8ccccc8c7C6(C)C)C(C)(C)c6c5ccc5ccccc65)NC(=O)[C@H](Cc5ccccc5)NC(=O)OCc5ccccc5)c(F)c4F)c4ccc5cc(S(=O)(=O)O)ccc5c4C3(C)C)/CCC2)=[N+](CCCS(=O)(=O)O)c2ccc(N(CCCS(=O)(=O)O)CCCS(=O)(=O)O)cc21 [VGT-309] was tested, and the “detection of lymph node spread under NIR” value ([1]; Example 2, 0.16 mg/kg, approximately 21 hours prior to surgery, biopsy confirmed that the cancer had spread) was “unexpected fluorescence in a more distant lymph node”, the “identification of metastatic spread / additional tumors under NIR” value ([1]; Example 3, 0.32 mg/kg, approximately 18.5 hours prior to surgery) was “identify additional tumors using NIR” and the “time following administration out to which VGT-309 may continue to emit a signal in tissue” value ([2]; animal model studies suggest) was “seven days”. The “time after administration at which VGT-309 can fluoresce cancerous tissue” value ([2]; based on preclinical studies) was “two hours to four days” and the “fraction of patients who experienced a clinically significant event (CSE)” value [3] was “one third”.
